What was measured:
TNKS2 = target: T1, TNKS2 (Homo sapiens, UniProt Q9H2K2); assay: TNKS2 Assay B (auto-parsylation, [3H]-NAD+ SPA); assay type: biochemical; settings: 6 nM TNKS2, auto-parsylation, over night at room temperature
T1 construct: purchased BPS Bioscience, San Diego, USA 80572 (TNKS2 Histone Ribosylation Assay Kit)
T1 sequence (Q9H2K2 1-1166): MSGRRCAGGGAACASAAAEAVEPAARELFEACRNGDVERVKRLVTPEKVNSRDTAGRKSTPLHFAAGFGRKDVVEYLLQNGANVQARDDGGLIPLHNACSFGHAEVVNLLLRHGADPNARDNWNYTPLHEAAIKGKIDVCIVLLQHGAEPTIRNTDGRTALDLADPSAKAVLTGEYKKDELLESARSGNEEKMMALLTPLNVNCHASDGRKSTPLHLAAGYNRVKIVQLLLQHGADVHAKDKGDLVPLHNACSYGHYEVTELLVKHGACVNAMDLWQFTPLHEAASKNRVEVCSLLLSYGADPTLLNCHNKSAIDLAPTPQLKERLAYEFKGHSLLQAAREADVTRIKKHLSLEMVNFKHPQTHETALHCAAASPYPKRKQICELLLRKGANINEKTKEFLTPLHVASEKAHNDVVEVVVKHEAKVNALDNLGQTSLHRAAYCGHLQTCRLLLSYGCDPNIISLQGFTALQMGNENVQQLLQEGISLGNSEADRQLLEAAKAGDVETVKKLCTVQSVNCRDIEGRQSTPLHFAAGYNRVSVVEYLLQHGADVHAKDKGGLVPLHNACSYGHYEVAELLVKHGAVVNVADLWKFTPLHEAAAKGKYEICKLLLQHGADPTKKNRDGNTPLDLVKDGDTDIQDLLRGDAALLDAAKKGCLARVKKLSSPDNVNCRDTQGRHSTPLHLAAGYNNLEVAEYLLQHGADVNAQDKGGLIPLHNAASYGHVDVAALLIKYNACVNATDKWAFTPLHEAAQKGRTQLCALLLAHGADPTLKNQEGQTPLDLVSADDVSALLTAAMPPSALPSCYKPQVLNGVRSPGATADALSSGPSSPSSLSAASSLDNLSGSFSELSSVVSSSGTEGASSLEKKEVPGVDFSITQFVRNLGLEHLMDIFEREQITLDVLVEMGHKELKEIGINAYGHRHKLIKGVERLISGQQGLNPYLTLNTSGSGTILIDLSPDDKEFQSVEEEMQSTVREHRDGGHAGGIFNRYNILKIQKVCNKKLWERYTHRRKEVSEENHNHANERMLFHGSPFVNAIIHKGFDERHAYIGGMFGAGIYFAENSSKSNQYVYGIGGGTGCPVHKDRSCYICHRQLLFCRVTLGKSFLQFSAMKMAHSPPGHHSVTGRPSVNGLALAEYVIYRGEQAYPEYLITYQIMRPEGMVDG

[1] = tested on: wildtype Wnt signaling cascade; assay: HEK293 TOP assay (Super TopFlash luciferase reporter, Wnt-3a stimulated); assay type: cell-based; settings: Homo sapiens, HEK293, 16 h, HEK293 TOP reporter cells, Wnt3a at EC50, 16 hours
Method in brief: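 HEK293 cells stably carrying Super TopFlash (TOP) run in parallel with FOP cells, 10000/well plated 24 h ahead, stimulated with recombinant human Wnt-3a. Compounds tested 50 μM to 15 nM in 3.16-fold steps in CAFTY buffer pH 7.4 with 2 mM Ca^2+ and 0.01% BSA; luciferase read-out.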

Compound: COC1CN(C(=O)c2nc[nH]c2C(=O)N[C@H]2CC[C@H](C(=O)Nc3ccc(F)cc3Cl)CC2)C1 [Example 24, 4 N-{trans-4-[(2-chloro-4-fluorophenyl)carbamoyl]cyclohexyl}-4-[(3-methoxyazetidin-1-yl)carbonyl]-1H-imidazole-5-carboxamide]
- IC50 (TNKS2): 17 nM
- IC50 [1]: 86 nM

Compound: O=C(NCCN1CC2(CCO2)C1)c1nc[nH]c1C(=O)N[C@H]1CC[C@H](C(=O)Nc2ccc(F)cc2Cl)CC1 [Example 25, N^5-{trans-4-[(2-chloro-4-fluorophenyl)carbamoyl]cyclohexyl}-N^4-[2-(1-oxa-6-azaspiro[3.3]hept-6-yl)ethyl]-1H-imidazole-4,5-dicarboxamide]
- IC50 (TNKS2): 11 nM
- IC50 [1]: 63 nM

Compound: CN(C)C1CN(C(=O)c2nc[nH]c2C(=O)N[C@H]2CC[C@H](C(=O)Nc3ccc(F)cc3Cl)CC2)C1 [Example 26, N-{trans-4-[(2-chloro-4-fluorophenyl)carbamoyl]cyclohexyl}-4-{[3-(dimethylamino)azetidin-1-yl]carbonyl}-1H-imidazole-5-carboxamide]
- IC50 (TNKS2): 80 nM
- IC50 [1]: 140 nM

Compound: CNC(=O)c1nc[nH]c1C(=O)N[C@H]1CC[C@H](C(=O)Nc2c(Br)cc(F)c(F)c2F)CC1 [Example 27, N^5-{trans-4-[(6-bromo-2,3,4-trifluorophenyl)carbamoyl]cyclohexyl}-N^4-methyl-1H-imidazole-4,5-dicarboxamide]
- IC50 (TNKS2): 19 nM
- IC50 [1]: 35 nM

Compound: CNC(=O)c1nc[nH]c1C(=O)N[C@H]1CC[C@H](C(=O)Nc2c(F)cc(F)cc2Br)CC1 [Example 28, N^5-{trans-4-[(6-bromo-2,4-difluorophenyl)carbamoyl]cyclohexyl}-N^4-methyl-1H-imidazole-4,5-dicarboxamide]
- IC50 (TNKS2): 26 nM
- IC50 [1]: 24 nM

Compound: CNC(=O)c1ncoc1C(=O)N[C@H]1CC[C@H](C(=O)Nc2ccc(F)cc2Cl)CC1 [Example 29, N^5-{trans-4-[(2-chloro-4-fluorophenyl)carbamoyl]cyclohexyl}-N^4-methyl-1,3-oxazole-4,5-dicarboxamide]
- IC50 (TNKS2): 590 nM
- IC50 [1]: 930 nM

Compound: CNC(=O)c1ocnc1C(=O)N[C@H]1CC[C@H](C(=O)Nc2ccc(F)cc2Cl)CC1 [Example 30]
- IC50 (TNKS2): > 10000 nM
- IC50 [1]: 44000 nM

Compound: Cc1cc(C)n2ncc(C(=O)NC3CCC(C(=O)Nc4ccc(F)cc4Cl)CC3C)c2n1 (stereo not drawn) [Example 42, N-{4-[(2-chloro-4-fluorophenyl)carbamoyl]-2-methylcyclohexyl}-5,7-dimethylpyrazolo[1,5-a]pyrimidine-3-carboxamide]
- IC50 (TNKS2): 120 nM
- IC50 [1]: 120 nM

Compound: O=C(N[C@H]1CC[C@H](C(=O)Nc2ccc(F)cc2Cl)CC1)c1cnn2cccnc12 [Example 43, N-{trans-4-[(2-chloro-4-fluorophenyl)carbamoyl]cyclohexyl}pyrazolo[1,5-a]pyrimidine-3-carboxamide]
- IC50 (TNKS2): 74 nM
- IC50 [1]: 130 nM

Compound: Cc1cc(C)n2ncc(C(=O)N[C@H]3CC[C@H](C(=O)Nc4ccc(F)cc4Cl)CC3)c2n1 [Example 44, N-{trans-4-[(2-chloro-4-fluorophenyl)carbamoyl]cyclohexyl}-5,7-dimethylpyrazolo[1,5-a]pyrimidine-3-carboxamide]
- IC50 (TNKS2): 150 nM
- IC50 [1]: 81 nM

Compound: O=C(N[C@H]1CC[C@H](C(=O)Nc2ccc(F)cc2Cl)CC1)c1cnc2cccnn12 [Example 45, N-{trans-4-[(2-chloro-4-fluorophenyl)carbamoyl]cyclohexyl}imidazo[1,2-b]pyridazine-3-carboxamide]
- IC50 (TNKS2): 130 nM
- IC50 [1]: 160 nM

Compound: CC(=O)c1cnc2c(C(=O)N[C@H]3CC[C@H](C(=O)Nc4ccc(F)cc4Cl)CC3)cnn2c1C [Example 46, 6-acetyl-N-{trans-4-[(2-chloro-4-fluorophenyl)carbamoyl]cyclohexyl}-7-methylpyrazolo[1,5-a]pyrimidine-3-carboxamide]
- IC50 (TNKS2): 25 nM
- IC50 [1]: 97 nM

Compound: O=C(N[C@H]1CC[C@H](C(=O)Nc2ccc(F)cc2Cl)CC1)c1cnc2ccc(Cl)nn12 [Example 47, 6-chloro-N-{trans-4-[(2-chloro-4-fluorophenyl)carbamoyl]cyclohexyl}imidazo[1,2-b]pyridazine-3-carboxamide]
- IC50 (TNKS2): 420 nM
- IC50 [1]: 390 nM

Compound: O=C(N[C@H]1CC[C@H](C(=O)Nc2ccc(F)cc2Cl)CC1)c1cnc2ccc(N3CCOCC3)nn12 [Example 48, N-{trans-4-[(2-chloro-4-fluorophenyl)carbamoyl]cyclohexyl}-6-(morpholin-4-yl)imidazo[1,2-b]pyridazine-3-carboxamide]
- IC50 (TNKS2): 310 nM
- IC50 [1]: 410 nM

Compound: CN1CCN(c2ccc3ncc(C(=O)N[C@H]4CC[C@H](C(=O)Nc5ccc(F)cc5Cl)CC4)n3n2)CC1 [Example 49, N-{trans-4-[(2-chloro-4-fluorophenyl)carbamoyl]cyclohexyl}-6-(4-methylpiperazin-1-yl)imidazo[1,2-b]pyridazine-3-carboxamide]
- IC50 (TNKS2): 130 nM
- IC50 [1]: 680 nM

Compound: COc1ccc2ncc(C(=O)N[C@H]3CC[C@H](C(=O)Nc4ccc(F)cc4Cl)CC3)n2n1 [Example 50, N-{trans-4-[(2-chloro-4-fluorophenyl)carbamoyl]cyclohexyl}-6-methoxyimidazo[1,2-b]pyridazine-3-carboxamide]
- IC50 (TNKS2): 170 nM
- IC50 [1]: 350 nM

Compound: O=C(N[C@H]1CC[C@H](C(=O)Nc2ccc(F)cc2Cl)CC1)c1cnc2ccc(N3CCCC3)nn12 [Example 51, N-{trans-4-[(2-chloro-4-fluorophenyl)carbamoyl]cyclohexyl}-6-(pyrrolidin-1-yl)imidazo[1,2-b]pyridazine-3-carboxamide]
- IC50 (TNKS2): 31 nM
- IC50 [1]: 290 nM

Compound: CN(C)c1ccc2ncc(C(=O)N[C@H]3CC[C@H](C(=O)Nc4ccc(F)cc4Cl)CC3)n2n1 [Example 52, N-{trans-4-[(2-chloro-4-fluorophenyl)carbamoyl]cyclohexyl}-6-(dimethylamino)imidazo[1,2-b]pyridazine-3-carboxamide]
- IC50 (TNKS2): 11 nM
- IC50 [1]: 150 nM

Compound: CNc1ccc2ncc(C(=O)N[C@H]3CC[C@H](C(=O)Nc4ccc(F)cc4Cl)CC3)n2n1 [Example 53, N-{trans-4-[(2-chloro-4-fluorophenyl)carbamoyl]cyclohexyl}-6-(methylamino)imidazo[1,2-b]pyridazine-3-carboxamide]
- IC50 (TNKS2): 47 nM
- IC50 [1]: 400 nM

Compound: Cc1c(C(C)O)cnc2c(C(=O)N[C@H]3CC[C@H](C(=O)Nc4ccc(F)cc4Cl)CC3)cnn12 (stereo partly drawn) [Example 58, N-{trans-4-[(2-chloro-4-fluorophenyl)carbamoyl]cyclohexyl}-6-(1-hydroxyethyl)-7-methylpyrazolo[1,5-a]pyrimidine-3-carboxamide]
- IC50 (TNKS2): 710 nM
- IC50 [1]: 1100 nM

Compound: Nc1nn2cccnc2c1C(=O)N[C@H]1CC[C@H](C(=O)Nc2ccc(F)cc2Cl)CC1 [Example 59, 2-amino-N-{trans-4-[(2-chloro-4-fluorophenyl)carbamoyl]cyclohexyl}pyrazolo[1,5-a]pyrimidine-3-carboxamide]
- IC50 (TNKS2): 500 nM
- IC50 [1]: 1300 nM

Compound: Cc1cc(C(C)(C)C)n2ncc(C(=O)N[C@H]3CC[C@H](C(=O)Nc4ccc(F)cc4Cl)CC3)c2n1 [Example 60, 7-tert-butyl-N-{trans-4-[(2-chloro-4-fluorophenyl)carbamoyl]cyclohexyl}-5-methylpyrazolo[1,5-a]pyrimidine-3-carboxamide]
- IC50 (TNKS2): 2200 nM
- IC50 [1]: 620 nM

Compound: Cc1cnc2c(C(=O)N[C@H]3CC[C@H](C(=O)Nc4ccc(F)cc4Cl)CC3)cnn2c1 [Example 61, N-{trans-4-[(2-chloro-4-fluorophenyl)carbamoyl]cyclohexyl}-6-methylpyrazolo[1,5-a]pyrimidine-3-carboxamide]
- IC50 (TNKS2): 34 nM
- IC50 [1]: 21 nM

Compound: Cc1cc(C2CC2)nc2c(C(=O)N[C@H]3CC[C@H](C(=O)Nc4ccc(F)cc4Cl)CC3)cnn12 [Example 62, N-{trans-4-[(2-chloro-4-fluorophenyl)carbamoyl]cyclohexyl}-5-cyclopropyl-7-methylpyrazolo[1,5-a]pyrimidine-3-carboxamide]
- IC50 (TNKS2): 2000 nM
- IC50 [1]: 12000 nM

Reference: US20180148418A1, “AMIDO-SUBSTITUTED CYCLOHEXANE DERIVATIVES” (Bayer Pharma Aktiengesellschaft, priority 2015, published 2018)
